Measured values reported in patent publication US20220048884A1, “NRF2 ACTIVATOR” (BIOGEN MA INC., priority 2017, published 2022).

Assays:
Nrf2 target genes [1] = assay: Gene expression (RT-PCR) in cultured human astrocytes; format: cell-based; details: 20 hours, increasing concentrations
Description: (§1) Human astrocytes from ScienCell (cat #1820) were grown in astrocyte medium per supplier's instructions. Cells cultured for no more than two passages were plated in 96-well plates at 40,000 cells per well for gene transcription experiments and 20,000 cell per well for glutathione and cytoprotection assays.
Primary cultures of human spinal cord astrocytes were treated with compound for 20 hours. The cells were then rinsed in PBS, lysed, and processed for RNA using Ambion Tagman™ Cells-to-CT kit. The resulting cDNA was stored at −20° C. until analysis by real-time polymerase chain reaction (RT-PCR). The cDNA mixture from Cells-to-CT was diluted 5× before loading into PCR. This yields results similar to using 6 ng of purified cDNA. RT-PCR was performed on Life Technologies QuantStudio platform using OpenArray technique according to manufacturer's protocol using the following Taqman primers: […]
The comparative CT method was used to calculate fold changes using ThermoFisher Cloud software for PCR analysis. Samples were compared to vehicle control.

human astrocytes [2] = assay: Glutathione assay in human astrocytes (GSH-Glo); format: cell-based; details: 20-hr exposure
Description: as §1
Intracellular glutathione was measured after a 20-hr exposure to test compounds by a two-step process. First, cells were lysed and luciferin quantitatively generated from substrate, catalyzed by glutathione-S-transferase in the presence of analyte glutathione. Then luciferin was assayed using stabilized luciferase to produce a luminescent signal proportional to the concentration of glutathione (Promega GSH-Glo, cat #V6912).

human astrocytes [3] = assay: Cytoprotection of astrocytes against sodium arsenite; format: cell-based; details: compound 20 hrs before 25 μM sodium arsenite, then 22 hrs
Description: as §1
Astrocytes were treated for 20 hrs as above, then the medium was removed and replaced with serum- and supplement-free growth medium with and without 25 μM sodium arsenite. After 22 hrs., cells were washed with PBS, fixed with 4% paraformaldehyde/4% sucrose in PBS, stained with 4′,6-Diamidino-2-phenylindole dihydrochloride (DAPI) and counted by quantitative fluorescence microscopy.

Nrf2 target genes [4] = assay: Nrf2 target gene expression (qRT-PCR) in tissues of mice after oral dosing; format: in vivo, C57BL/6 mice; details: wild-type mice, 10 and 50 mg/kg single oral dose, 2 hours after dosing
Text: RNA was extracted in chloroform and the aqueous phase was mixed with an equal volume of 70% ethanol. Extracted RNA was applied to RNeasy 96 plates and purified by the spin method according to the manufacturer's protocol (RNeasy 96 Universal Tissue Protocol, QIAgen, Hilden Germany).

NRF2 = assay: PathHunter Nuclear Translocation assay (DiscoverX), agonist format; format: cell-based; details: 6 hours incubation, 10 concentrations, 30 μM top concentration
Text: Vehicle concentration was 1%.
Microplates were read following signal generation with a PerkinElmer Envision™ instrument for chemiluminescent signal detection.

Row | SMILES | transcription of GCLC (Nrf2 target genes [1]) | transcription of HMOX1 (Nrf2 target genes [1]) | transcription of NQO1 (Nrf2 target genes [1]) | transcription of OSGIN1 (Nrf2 target genes [1]) | intracellular glutathione (human astrocytes [2]) | protection from oxidative stress-induced cell death (human astrocytes [3]) | expression of Osgin1 in brain (Nrf2 target genes [4]) | EC50 (NRF2) [µM]
1 | CCn1nnc2c(C)c([C@@H](CC(=O)O)c3ccc4c(c3)CN(C(=O)c3c(C)c(C)cc(C)c3C)CC4)ccc21 [Example 47-Ent1, (S)-3-(1-ethyl-4-methyl-1H-benzo[d][1,2,3]triazol-5-yl)-3-(2-(2,3,5,6-tetramethylbenzoyl)-1,2,3,4-tetrahydroisoquinolin-7-yl)propanoic acid] | induces transcription | induces transcription | induces transcription | induces transcription | increases intracellular glutathione | protects cells from oxidative stress-induced cell death | increases the expression | –
2 | CCn1nnc2c(C)c([C@H](c3ccc4c(c3)CN(C(=O)c3ccc(C)c(C)c3)CC4)[C@H](C)C(=O)ON)ccc21 [Example 133, amino (2S,3S)-3-[2-(3,4-dimethylbenzoyl)-3,4-dihydro-1H-isoquinolin-7-yl]-3-(1-ethyl-4-methyl-benzotriazol-5-yl)-2-methyl-propanoate] | – | – | – | – | – | – | – | < 0.1
